The target of one data set is T1, α1A adrenoceptor (Rattus norvegicus, UniProt P43140).
T1 construct: from tissue; host or cells: rat submaxillary gland membranes
T1 sequence (P43140 1-466): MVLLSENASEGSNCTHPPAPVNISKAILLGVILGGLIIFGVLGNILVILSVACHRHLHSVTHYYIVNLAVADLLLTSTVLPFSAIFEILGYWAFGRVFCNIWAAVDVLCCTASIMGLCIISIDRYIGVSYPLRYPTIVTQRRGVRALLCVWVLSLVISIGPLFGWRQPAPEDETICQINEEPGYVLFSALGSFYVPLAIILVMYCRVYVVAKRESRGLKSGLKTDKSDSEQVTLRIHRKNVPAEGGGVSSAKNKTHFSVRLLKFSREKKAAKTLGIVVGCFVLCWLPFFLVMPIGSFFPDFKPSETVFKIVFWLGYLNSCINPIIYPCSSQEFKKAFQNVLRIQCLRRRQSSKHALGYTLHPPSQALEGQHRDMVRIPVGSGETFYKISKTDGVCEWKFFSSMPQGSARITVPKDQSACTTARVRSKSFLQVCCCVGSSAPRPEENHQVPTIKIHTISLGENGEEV
As to the kind of experiment: Radioligand binding, [3H] prazosin displacement, rat submaxillary membranes. The conditions noted are these: for Ki: [3H] prazosin displacement, rat submaxillary membranes, read-out: Affinity (Ki) α1A (Rat Submaxillary); for α1B/α1A: ratio of binding affinities, rat liver / rat submaxillary. An outline of the steps:
(§1)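 Displacement of [3H]prazosin measured by filtration and counting, with Ki from IC50 via Cheng–Prusoff and nonspecific binding set by 300 nM prazosin. Native rat submaxillary (α1A) or liver (α1B) membranes, 150-250 μg protein, 1 h at 24-25° C in Tris/EDTA pH 7.4.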

The target of the next data set is T2, α1B adrenoceptor (Rattus norvegicus, UniProt P15823).
T2 construct: from tissue; host or cells: rat liver membranes
T2 sequence (P15823 1-515): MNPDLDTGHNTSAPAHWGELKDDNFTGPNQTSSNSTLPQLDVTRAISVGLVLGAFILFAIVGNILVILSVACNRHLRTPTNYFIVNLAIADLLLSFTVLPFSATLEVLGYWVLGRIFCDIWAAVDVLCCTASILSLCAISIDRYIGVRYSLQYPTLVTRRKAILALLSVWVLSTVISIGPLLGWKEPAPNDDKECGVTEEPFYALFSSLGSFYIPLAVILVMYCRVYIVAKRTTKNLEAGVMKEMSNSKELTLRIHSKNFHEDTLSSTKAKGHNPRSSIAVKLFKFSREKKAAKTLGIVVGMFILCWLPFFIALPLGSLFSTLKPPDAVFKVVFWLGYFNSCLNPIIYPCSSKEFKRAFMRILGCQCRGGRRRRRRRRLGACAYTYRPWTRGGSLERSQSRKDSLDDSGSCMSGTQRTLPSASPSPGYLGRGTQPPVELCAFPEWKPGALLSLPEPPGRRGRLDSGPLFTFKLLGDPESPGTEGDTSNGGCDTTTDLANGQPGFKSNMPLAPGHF
As to the kind of experiment: Radioligand binding, [3H] prazosin displacement, rat liver membranes. The conditions noted are these: read-out: Affinity (Ki) α1B (Rat Liver). An outline of the steps:
as §1

Data set [1] has as its target T3, α1A adrenoceptor (prostate) (Rattus norvegicus, UniProt P43140).
T3 construct: from tissue; host or cells: isolated prostate tissue
T3 sequence (P43140 1-466): T1 sequence (P43140 1-466)
As to the kind of experiment: In vitro functional assay, isolated prostate, phenylepinephrine contraction. Format: cell-based. The conditions noted are these: for Selectivity α1B/α1A / Selectivity α1D/α1A: functional, from pKB; for Kb: rat prostate, phenylepinephrine, read-out: α Adrenoceptor Subtype (pKB) α1A (converted). An outline of the steps: (§2)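 Rat aorta, spleen and prostate strips from urethane-anaesthetised male Wistar rats in Krebs-Henseleit at 37 °C (95% O2/5% CO2), 2 g or 1 g resting tension, 2 h equilibration. Norepinephrine (aorta) or phenylephrine (spleen, prostate) contraction curves run without and with compound at […]; antagonist affinity given as pKB.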

The target in data set [2] is T4, α1B adrenoceptor (spleen) (Rattus norvegicus, UniProt P15823).
T4 construct: Isolated tissues were mounted in organ bath containing Krebs Henseleit buffer; from tissue; host or cells: isolated rat spleen
T4 sequence (P15823 1-515): T2 sequence (P15823 1-515)
Put plainly: In vitro functional assay, isolated spleen, phenylepinephrine contraction. Format: cell-based. As to conditions: read-out: α Adrenoceptor Subtype (pKB) α1B (converted). An outline of the steps:
as §2

A further data set has as its target T5, α1D adrenoceptor (aorta) (Rattus norvegicus, UniProt P23944).
T5 construct: Isolated tissues were mounted in organ bath containing Krebs Henseleit buffer; from tissue; host or cells: isolated rat aorta
T5 sequence (P23944 1-561): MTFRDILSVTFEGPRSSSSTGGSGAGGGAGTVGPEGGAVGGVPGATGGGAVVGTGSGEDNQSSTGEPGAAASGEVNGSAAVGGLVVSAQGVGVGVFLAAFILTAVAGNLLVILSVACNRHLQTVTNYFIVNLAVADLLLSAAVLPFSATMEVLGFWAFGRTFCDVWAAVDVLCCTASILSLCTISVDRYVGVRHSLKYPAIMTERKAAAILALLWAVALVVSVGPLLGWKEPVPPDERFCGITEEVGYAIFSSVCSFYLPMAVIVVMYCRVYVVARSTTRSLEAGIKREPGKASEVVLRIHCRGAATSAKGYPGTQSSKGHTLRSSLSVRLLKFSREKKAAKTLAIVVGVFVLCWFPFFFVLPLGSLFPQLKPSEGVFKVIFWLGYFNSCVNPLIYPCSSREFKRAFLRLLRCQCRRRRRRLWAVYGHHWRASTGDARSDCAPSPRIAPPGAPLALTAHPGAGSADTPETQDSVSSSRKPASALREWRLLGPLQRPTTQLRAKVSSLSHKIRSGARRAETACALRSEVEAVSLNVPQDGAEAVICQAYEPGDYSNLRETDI
Put plainly: In vitro functional assay, isolated aorta, norepinephrine contraction. Format: cell-based. The conditions noted are these: read-out: α Adrenoceptor Subtype (pKB) α1D (converted). An outline of the steps: as §2

In a further data set the target is α1-adrenoceptor. The conditions noted are these: background statement; cited from earlier work.

As to `CCOc1ccccc1N1CC[N+]([O-])(CCCN2C(=O)C3CC=CCC3C2=O)CC1` (centres unmarked) [compound 04, 2-[3-{4-(2-Ethoxyphenyl)piperazin-1-yl, 1-N-oxide}propyl]-3a,4,7,7a-tetrahydro-1H-isoindole-1,3(2H)-dione], the melting point (usually the temperature, or range, at which the solid turns liquid) was 75 to 80 °C. Further, at α1A adrenoceptor, the Ki (commonly a measure of affinity in units of concentration, obtained from inhibition or displacement) is 22 nM and the α1B/α1A is on record as greater than 45. Besides, the Ki at α1B adrenoceptor was greater than 1000 nM. Besides, in data set [1], the “Selectivity α1B/α1A” value is listed as 2.9, the “Selectivity α1D/α1A” value is on record as 33 and the Kb is 2.45 nM. The Kb in data set [2] is 7.08 nM. Moreover, on α1D adrenoceptor (aorta), the Kb is 81.3 nM.
`COc1cc2nc(N3CCN(C(=O)c4ccco4)CC3)nc(N)c2cc1OC` [prazosin]: the “α1-adrenergic blocking activity (pKi)” value on α1-adrenoceptor is given as greater than 8.
In turn, `CC(=O)OC1C=CC(OC(C)=O)C2C(=O)N(CCCN3CCN(c4ccccc4OC(C)C)CC3)C(=O)C12.Cl` (centres unmarked) [Compound No. 73, 2-[3-{4-(2-Isopropoxyphenyl)piperazin-1-yl}propyl]-4,7-diacetoxy-3a,4,7,7a-tetrahydro-1H-isoindole-1,3(2H)-dione hydrochloride] showed a melting point of 176 to 177 °C. Further, on α1A adrenoceptor, the Ki was determined as 8.45 nM and the α1B/α1A came out at 23. Further, the Ki at α1B adrenoceptor was 192 nM.
`CC(C)Oc1ccccc1N1CCN(CCCN2C(=O)C3CC=CC(O)C3C2=O)CC1.Cl` (centres unmarked) [Compound No. 41, 2-[3-{4-(2-Isopropoxyphenyl)piperazin-1-yl}propyl]-4-hydroxy-3a,4,7,7a-tetrahydro-1H-isoindole-1,3(2H)-dione hydrochloride] had a melting point of 186 to 190 °C. On α1A adrenoceptor, the Ki came to 0.3 nM and the α1B/α1A is 350. For the same compound, on α1B adrenoceptor, the Ki turned out to be 105 nM. For the same compound, in data set [1], the “Selectivity α1B/α1A” value was 132, the “Selectivity α1D/α1A” value worked out at 4.8 and the Kb is 0.513 nM. Besides, in data set [2], the Kb was 67.6 nM. At α1D adrenoceptor (aorta), the Kb is 2.45 nM.

Values taken from patent US20050228180A1, “Alpha, omega-dicarboximide derivatives as useful uro-selective a1a adrenoceptor blockers” (priority 2002, published 2005).
